Experimental data: ChEMBL document CHEMBL1649565, “Besifloxacin, a novel fluoroquinolone, has broad-spectrum in vitro activity against aerobic and anaerobic bacteria” (Antimicrob Agents Chemother, 2009)
Values after ≈ are worked out from the molar mass of the structure shown.

Key:
Type in all cases: functional
Staphylococcus aureus [1] = assay: Antibacterial activity against ciprofloxacin-susceptible and methicillin-resistant Staphylococcus aureus by CLSI M100-S18 method
Staphylococcus aureus [2] = assay: Antibacterial activity against non-ciprofloxacin-susceptible and methicillin-susceptible Staphylococcus aureus by CLSI M100-S18 method
[3] = tested on: Staphylococcus epidermidis; assay: Antibacterial activity against ciprofloxacin-susceptible and methicillin-resistant Staphylococcus epidermidis by CLSI M100-S18 method
[4] = tested on: Staphylococcus epidermidis; assay: Antibacterial activity against non-ciprofloxacin-susceptible and methicillin-susceptible Staphylococcus epidermidis by CLSI M100-S18 method
[5] = tested on: Staphylococcus haemolyticus; assay: Antibacterial activity against Staphylococcus haemolyticus by CLSI M100-S18 method
Staphylococcus hominis = assay: Antibacterial activity against Staphylococcus hominis by CLSI M100-S18 method
[6] = tested on: Staphylococcus lugdunensis; assay: Antibacterial activity against Staphylococcus lugdunensis by CLSI M100-S18 method
[7] = tested on: Staphylococcus saprophyticus; assay: Antibacterial activity against Staphylococcus saprophyticus by CLSI M100-S18 method
Staphylococcus warneri = assay: Antibacterial activity against Staphylococcus warneri by CLSI M100-S18 method
Streptococcus agalactiae = assay: Antibacterial activity against Streptococcus agalactiae by CLSI M100-S18 method
[8] = Antibacterial activity against Lancefield Streptococcus sp. 'group C' by CLSI M100-S18 method
Streptococcus sp. = assay: Antibacterial activity against Lancefield Streptococcus sp. group F by CLSI M100-S18 method
[9] = Antibacterial activity against Lancefield Streptococcus sp. 'group G' by CLSI M100-S18 method
Streptococcus pyogenes = assay: Antibacterial activity against Streptococcus pyogenes by CLSI M100-S18 method
Streptococcus anginosus = assay: Antibacterial activity against Streptococcus anginosus by CLSI M100-S18 method
Streptococcus equinus = assay: Antibacterial activity against Streptococcus bovis by CLSI M100-S18 method
[10] = tested on: Streptococcus constellatus; assay: Antibacterial activity against Streptococcus constellatus by CLSI M100-S18 method
[11] = tested on: Streptococcus intermedius; assay: Antibacterial activity against Streptococcus intermedius by CLSI M100-S18 method
Streptococcus mitis = assay: Antibacterial activity against Streptococcus mitis by CLSI M100-S18 method
Streptococcus oralis = assay: Antibacterial activity against Streptococcus oralis by CLSI M100-S18 method
Streptococcus salivarius = assay: Antibacterial activity against Streptococcus salivarius by CLSI M100-S18 method
Streptococcus sanguinis = assay: Antibacterial activity against Streptococcus sanguinis by CLSI M100-S18 method

SMILES: COc1c(N2CCNC(C)C2)c(F)cc2c(=O)c(C(=O)O)cn(C3CC3)c12 (configuration not stated) [GATIFLOXACIN]
- MIC50 (Staphylococcus aureus [1]): 0.06 µg/mL (≈ 0.16 µM)
- MIC90 (Staphylococcus aureus [1]): 0.25 µg/mL (≈ 0.666 µM)
- MIC50 (Staphylococcus aureus [2]): 4 µg/mL (≈ 10.7 µM)
- MIC90 (Staphylococcus aureus [2]): > 8 µg/mL
- MIC [3]: 0.06 µg/mL (≈ 0.16 µM)
- MIC50 [3]: 0.06 µg/mL (≈ 0.16 µM)
- MIC [4]: 1 µg/mL (≈ 2.66 µM)
- MIC50 [4]: 1 µg/mL (≈ 2.66 µM)
- MIC50 [5]: 2 µg/mL (≈ 5.33 µM)
- MIC90 [5]: 8 µg/mL (≈ 21.3 µM)
- MIC50 (Staphylococcus hominis): 1 µg/mL (≈ 2.66 µM)
- MIC90 (Staphylococcus hominis): 4 µg/mL (≈ 10.7 µM)
- MIC50 [6]: 0.12 µg/mL (≈ 0.32 µM)
- MIC90 [6]: 2 µg/mL (≈ 5.33 µM)
- MIC50 [7]: 0.12 µg/mL (≈ 0.32 µM)
- MIC90 [7]: 0.25 µg/mL (≈ 0.666 µM)
- MIC50 (Staphylococcus warneri): 0.12 µg/mL (≈ 0.32 µM)
- MIC90 (Staphylococcus warneri): 4 µg/mL (≈ 10.7 µM)
- MIC50 (Streptococcus agalactiae): 0.03 µg/mL (≈ 0.0799 µM)
- MIC90 (Streptococcus agalactiae): 0.06 µg/mL (≈ 0.16 µM)
- MIC [8]: ≤ 0.015 µg/mL
- MIC50 [8]: ≤ 0.015 µg/mL
- MIC90 [8]: 0.06 µg/mL (≈ 0.16 µM)
- MIC (Streptococcus sp.): ≤ 0.015 µg/mL
- MIC50 (Streptococcus sp.): ≤ 0.015 µg/mL
- MIC90 (Streptococcus sp.): 0.06 µg/mL (≈ 0.16 µM)
- MIC [9]: ≤ 0.015 µg/mL
- MIC50 [9]: ≤ 0.015 µg/mL
- MIC90 [9]: 0.06 µg/mL (≈ 0.16 µM)
- MIC50 (Streptococcus pyogenes): 0.12 µg/mL (≈ 0.32 µM)
- MIC90 (Streptococcus pyogenes): 0.25 µg/mL (≈ 0.666 µM)
- MIC50 (Streptococcus anginosus): 0.25 µg/mL (≈ 0.666 µM)
- MIC90 (Streptococcus anginosus): 0.5 µg/mL (≈ 1.33 µM)
- MIC50 (Streptococcus equinus): 0.06 µg/mL (≈ 0.16 µM)
- MIC90 (Streptococcus equinus): 1 µg/mL (≈ 2.66 µM)
- MIC50 [10]: 0.06 µg/mL (≈ 0.16 µM)
- MIC90 [10]: 1 µg/mL (≈ 2.66 µM)
- MIC50 [11]: 0.06 µg/mL (≈ 0.16 µM)
- MIC90 [11]: 1 µg/mL (≈ 2.66 µM)
- MIC50 (Streptococcus mitis): 0.06 µg/mL (≈ 0.16 µM)
- MIC90 (Streptococcus mitis): 1 µg/mL (≈ 2.66 µM)
- MIC50 (Streptococcus oralis): 0.06 µg/mL (≈ 0.16 µM)
- MIC90 (Streptococcus oralis): 1 µg/mL (≈ 2.66 µM)
- MIC50 (Streptococcus salivarius): 0.06 µg/mL (≈ 0.16 µM)
- MIC90 (Streptococcus salivarius): 1 µg/mL (≈ 2.66 µM)
- MIC50 (Streptococcus sanguinis): 0.06 µg/mL (≈ 0.16 µM)
- MIC90 (Streptococcus sanguinis): 1 µg/mL (≈ 2.66 µM)
